Where two headings read alike, the source gives them in different places.
How the values were obtained:
oat, wild [1] = test: Test A postemergence; format: in vivo, Avena fatua; conditions: Avena fatua, post-emergence, 240 h, postemergence, 10 days, 0 to 100 scale (0 no effect, 100 complete control); for pest or weed control at 125 g/ha: 125 g ai/ha, read-out: Oat, Wild plant response rating; for pest or weed control at 500 g/ha: 500 g ai/ha, visual injury, read-out: Plant response rating, Oat, Wild
Outline: (§1)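 Loam/sand soil; pre-em directed soil spray at planting, post-em spray at 1–2 leaf (2–10 cm). Compound in non-phytotoxic solvent + surfactant. Greenhouse 10 d; visual injury vs untreated, 0 = no effect, 100 = complete control.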

soybean = test: Test A preemergence; format: in vivo, Glycine max; conditions: Glycine max, pre-emergence, 240 h, read-out: Plant response rating, Soybean; for plant injury at 125 g/ha: 125 g ai/ha; for plant injury at 500 g/ha: 500 g ai/ha
Outline: as §1

goosegrass [2] = test: Test A preemergence; format: in vivo, Eleusine indica; conditions: Eleusine indica, pre-emergence, 240 h, read-out: Plant response rating, Goosegrass; for pest or weed control at 125 g/ha: 125 g ai/ha; for pest or weed control at 500 g/ha: 500 g ai/ha
Outline: as §1

goosegrass [3] = test: Test A postemergence; format: in vivo, Eleusine indica; conditions: Eleusine indica, post-emergence, 240 h, postemergence, 10 days, 0 to 100 scale (0 no effect, 100 complete control); for pest or weed control at 125 g/ha: 125 g ai/ha; for pest or weed control at 500 g/ha: 500 g ai/ha
Outline: as §1

kochia = test: Test A preemergence; format: in vivo, Bassia scoparia; conditions: Bassia scoparia, pre-emergence, 240 h, read-out: Plant response rating, Kochia; for pest or weed control at 125 g/ha: 125 g ai/ha; for pest or weed control at 500 g/ha: 500 g ai/ha
Outline: as §1

wheat = test: Test A postemergence; format: in vivo, Triticum aestivum; conditions: Triticum aestivum, post-emergence, 240 h, postemergence, 10 days, 0 to 100 scale (0 no effect, 100 complete control); for plant injury at 125 g/ha: 125 g ai/ha, read-out: Wheat plant response rating; for plant injury at 500 g/ha: 500 g ai/ha, visual injury, read-out: Plant response rating, Wheat
Outline: as §1

ryegrass, Italian = test: Test A postemergence; format: in vivo, Lolium multiflorum; conditions: Lolium multiflorum, post-emergence, 240 h, postemergence, 10 days, 0 to 100 scale (0 no effect, 100 complete control); for pest or weed control at 125 g/ha: 125 g ai/ha, read-out: Ryegrass, Italian plant response rating; for pest or weed control at 500 g/ha: 500 g ai/ha, visual injury, read-out: Plant response rating, Ryegrass, Italian
Outline: as §1

sedge, umbrella = test: Test B flooded paddy test; format: in vivo, Cyperus difformis; conditions: Cyperus difformis, 312 h; 250 g ai/ha, Flood, 13 days, 0 to 100 scale (0 no effect, 100 complete control); read-out: Plant response rating, Sedge, Umbrella
Outline: (§2)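 Plants at the 2-leaf stage were flooded to 3 cm above the soil, and test compounds were applied directly into the paddy water, with that depth held throughout. After 13 days in a greenhouse, injury was rated visually against untreated controls on a 0–100 scale (100 = complete control).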

blackgrass [4] = test: Test A postemergence; format: in vivo, Alopecurus myosuroides; conditions: Alopecurus myosuroides, post-emergence, 240 h; for pest or weed control at 125 g/ha: 125 g ai/ha; for pest or weed control at 500 g/ha: 500 g ai/ha
Outline: as §1

galium = test: Test A postemergence; format: in vivo, Galium aparine; conditions: Galium, post-emergence, 240 h, postemergence, 10 days, 0 to 100 scale (0 no effect, 100 complete control); for pest or weed control at 125 g/ha: 125 g ai/ha; for pest or weed control at 500 g/ha: 500 g ai/ha
Outline: as §1

ducksalad = test: Test B flooded paddy test; format: in vivo, Heteranthera limosa; conditions: Heteranthera limosa, 312 h, 250 g ai/ha, Flood, 13 days, 0 to 100 scale (0 no effect, 100 complete control); read-out: Plant response rating, Ducksalad
Outline: as §2

rice = test: Test B flooded paddy test; format: in vivo, Oryza sativa; conditions: Oryza sativa, 312 h; 250 g ai/ha, Flood, 13 days, 0 to 100 scale (0 no effect, 100 complete control); read-out: Plant response rating, Rice
Outline: as §2

blackgrass [5] = test: Test A preemergence; format: in vivo, Alopecurus myosuroides; conditions: Alopecurus myosuroides, pre-emergence, 240 h, read-out: Plant response rating, Blackgrass; for pest or weed control at 125 g/ha: 125 g ai/ha, visual injury after 10 days, 0 to 100 scale, 0 is no effect, 100 is complete control; for pest or weed control at 500 g/ha: 500 g ai/ha, 0 to 100 scale (0 no effect, 100 complete control), 10 days
Outline: as §1

oat, wild [6] = test: Test A preemergence; format: in vivo, Avena fatua; conditions: Avena fatua, pre-emergence, 240 h, read-out: Plant response rating, Oat, Wild; for pest or weed control at 125 g/ha: 125 g ai/ha, visual injury after 10 days, 0 to 100 scale, 0 is no effect, 100 is complete control; for pest or weed control at 500 g/ha: 500 g ai/ha, 0 to 100 scale (0 no effect, 100 complete control), 10 days
Outline: as §1

[7] = visual injury after 10 days, 0 to 100 scale, 0 is no effect, 100 is complete control
[8] = read-out: Goosegrass plant response rating
[9] = visual injury, read-out: Plant response rating, Goosegrass
[10] = postemergence, 10 days, 0 to 100 scale (0 no effect, 100 complete control), read-out: Blackgrass plant response rating
[11] = postemergence, 10 days, visual injury, 0 to 100 scale (0 no effect, 100 complete control), read-out: Plant response rating, Blackgrass
[12] = visual injury, read-out: Plant response rating, Galium
[13] = 0 to 100 scale (0 no effect, 100 complete control), 10 days

Q: How did the pest or weed control at 125 g/ha (oat, wild [1]) turn out when `Cc1ccc(-n2ncnc2C)cc1C(=O)N1C[C@H](C)Oc2c(Cl)cccc21` (single isomer, unassigned) [Compound 126] was run?
A: 0%

Q: What about the pest or weed control at 500 g/ha (oat, wild [1]) of the same compound?
A: 50%

Q: What about the plant injury at 125 g/ha (soybean; [7]) of the same compound?
A: 0%

Q: And the plant injury at 500 g/ha (soybean; [7])?
A: 50%

Q: And the pest or weed control at 125 g/ha (goosegrass [2]; [7])?
A: 20%

Q: And the pest or weed control at 500 g/ha (goosegrass [2]; [7])?
A: 90%

Q: And the pest or weed control at 125 g/ha (goosegrass [3]; [8])?
A: 0%

Q: And the pest or weed control at 500 g/ha (goosegrass [3]; [9])?
A: 0%

Q: And the pest or weed control at 125 g/ha (kochia; [7])?
A: 0%

Q: And the pest or weed control at 500 g/ha (kochia; [7])?
A: 0%

Q: What about the plant injury at 125 g/ha (wheat) of the same compound?
A: 0%

Q: And the plant injury at 500 g/ha (wheat)?
A: 30%

Q: And the pest or weed control at 125 g/ha (ryegrass, Italian)?
A: 0%

Q: And the pest or weed control at 500 g/ha (ryegrass, Italian)?
A: 50%

Q: And the pest or weed control at 250 g/ha (sedge, umbrella)?
A: 0%

Q: What about the pest or weed control at 125 g/ha (blackgrass [4]; [10]) of the same compound?
A: 0%

Q: What about the pest or weed control at 500 g/ha (blackgrass [4]; [11]) of the same compound?
A: 40%

Q: What about the pest or weed control at 125 g/ha (galium; read-out: Galium plant response rating) of the same compound?
A: 50%

Q: What about the pest or weed control at 500 g/ha (galium; [12]) of the same compound?
A: 70%

Q: And the pest or weed control at 250 g/ha (ducksalad)?
A: 0%

Q: What about the plant injury at 250 g/ha (rice) of the same compound?
A: 0%

Q: `COc1ccc(-n2cnc(C(C)C)n2)cc1C(=O)N1C[C@H](C)Oc2c(Cl)cccc21` [Compound 84, [(2S)-8-chloro-2-methyl-2,3-dihydro-1,4-benzoxazin-4-yl]-[5-(3-isopropyl-1,2,4-triazol-1-yl)-2-methoxy-phenyl]methanone] was tested. Which pest or weed control at 125 g/ha (oat, wild [1]) did it give?
A: 90%

Q: What about the pest or weed control at 500 g/ha (oat, wild [1]) of the same compound?
A: 90%

Q: What about the plant injury at 125 g/ha (soybean; [7]) of the same compound?
A: 90%

Q: What about the plant injury at 500 g/ha (soybean; [13]) of the same compound?
A: 100%

Q: And the pest or weed control at 125 g/ha (goosegrass [2]; [7])?
A: 100%

Q: What about the pest or weed control at 500 g/ha (goosegrass [2]; [13]) of the same compound?
A: 100%

Q: What about the pest or weed control at 125 g/ha (goosegrass [3]; [8]) of the same compound?
A: 100%

Q: What about the pest or weed control at 500 g/ha (goosegrass [3]; [9]) of the same compound?
A: 100%

Q: And the pest or weed control at 125 g/ha (kochia; [7])?
A: 80%

Q: What about the pest or weed control at 500 g/ha (kochia; [13]) of the same compound?
A: 100%

Q: What about the plant injury at 125 g/ha (wheat) of the same compound?
A: 40%

Q: What about the plant injury at 500 g/ha (wheat) of the same compound?
A: 50%

Q: And the pest or weed control at 125 g/ha (blackgrass [5])?
A: 80%

Q: What about the pest or weed control at 500 g/ha (blackgrass [5]) of the same compound?
A: 80%

Q: And the pest or weed control at 125 g/ha (ryegrass, Italian)?
A: 100%

Q: And the pest or weed control at 500 g/ha (ryegrass, Italian)?
A: 100%

Q: And the pest or weed control at 250 g/ha (sedge, umbrella)?
A: 100%

Q: What about the pest or weed control at 125 g/ha (blackgrass [4]; [10]) of the same compound?
A: 70%

Q: What about the pest or weed control at 500 g/ha (blackgrass [4]; [11]) of the same compound?
A: 70%

Q: And the pest or weed control at 125 g/ha (oat, wild [6])?
A: 90%

Q: What about the pest or weed control at 500 g/ha (oat, wild [6]) of the same compound?
A: 90%

Q: What about the pest or weed control at 250 g/ha (ducksalad) of the same compound?
A: 60%

Q: And the plant injury at 250 g/ha (rice)?
A: 0%

Q: `CCc1ncn(-c2ccc(OC)c(C(=O)N3C[C@H](C)Oc4c(Cl)cccc43)c2)n1` [Compound 88, [(2S)-8-Chloro-2,3-dihydro-2-methyl-4H-1,4-benzoxazin-4-yl][5-(3-ethyl-1H-1,2,4-triazol-1-yl)-2-methoxyphenyl]methanone] was tested. Which pest or weed control at 125 g/ha (oat, wild [1]) did it give?
A: 90%

Q: What about the pest or weed control at 500 g/ha (oat, wild [1]) of the same compound?
A: 90%

Q: What about the plant injury at 125 g/ha (soybean; [7]) of the same compound?
A: 50%

Q: And the plant injury at 500 g/ha (soybean; [13])?
A: 100%

Q: And the pest or weed control at 125 g/ha (goosegrass [2]; [7])?
A: 100%

Q: And the pest or weed control at 500 g/ha (goosegrass [2]; [13])?
A: 100%

Q: What about the pest or weed control at 125 g/ha (goosegrass [3]; [8]) of the same compound?
A: 100%

Q: What about the pest or weed control at 500 g/ha (goosegrass [3]; [9]) of the same compound?
A: 100%

Q: What about the pest or weed control at 125 g/ha (kochia; [7]) of the same compound?
A: 90%

Q: What about the pest or weed control at 500 g/ha (kochia; [13]) of the same compound?
A: 100%

Q: And the plant injury at 125 g/ha (wheat)?
A: 40%

Q: What about the plant injury at 500 g/ha (wheat) of the same compound?
A: 90%

Q: And the pest or weed control at 125 g/ha (blackgrass [5])?
A: 80%

Q: What about the pest or weed control at 500 g/ha (blackgrass [5]) of the same compound?
A: 80%

Q: What about the pest or weed control at 125 g/ha (ryegrass, Italian) of the same compound?
A: 80%

Q: And the pest or weed control at 500 g/ha (ryegrass, Italian)?
A: 100%

Q: What about the pest or weed control at 250 g/ha (sedge, umbrella) of the same compound?
A: 100%

Q: What about the pest or weed control at 125 g/ha (blackgrass [4]; [10]) of the same compound?
A: 60%

Q: And the pest or weed control at 500 g/ha (blackgrass [4]; [11])?
A: 90%

Q: And the pest or weed control at 125 g/ha (oat, wild [6])?
A: 90%

Q: And the pest or weed control at 500 g/ha (oat, wild [6])?
A: 90%

Q: What about the pest or weed control at 250 g/ha (ducksalad) of the same compound?
A: 55%

Q: And the plant injury at 250 g/ha (rice)?
A: 10%

Q: What does the source list for `Cc1ccc(-n2cnc(C(C)(C)C)n2)cc1C(=O)N1C[C@H](C)Oc2c(Cl)cccc21` [Compound 76, [(2S)-8-Chloro-2,3-dihydro-2-methyl-4H-1,4-benzoxazin-4-yl][5-[3-(1,1-dimethylethyl)-1H-1,2,4-triazol-1-yl]-2-methylphenyl]methanone]?
A: pest or weed control at 500 g/ha (oat, wild [1]): 90%; plant injury at 125 g/ha (soybean; [7]): 50%; plant injury at 500 g/ha (soybean; [13]): 100%; pest or weed control at 125 g/ha (goosegrass [2]; [7]): 100%; pest or weed control at 500 g/ha (goosegrass [2]; [13]): 100%; pest or weed control at 125 g/ha (goosegrass [3]; [9]): 50%; pest or weed control at 500 g/ha (goosegrass [3]; [9]): 80%; pest or weed control at 125 g/ha (kochia; [7]): 70%; pest or weed control at 500 g/ha (kochia; [13]): 100%; plant injury at 500 g/ha (wheat): 40%; pest or weed control at 500 g/ha (ryegrass, Italian): 80%; pest or weed control at 250 g/ha (sedge, umbrella): 98%; pest or weed control at 125 g/ha (blackgrass [4]; [11]): 70%; pest or weed control at 500 g/ha (blackgrass [4]; Postemergence, 0 to 100 scale, read-out: Plant response rating, Blackgrass): 70%; pest or weed control at 125 g/ha (galium; [12]): 100%; pest or weed control at 500 g/ha (galium; [12]): 100%; pest or weed control at 250 g/ha (ducksalad): 20%; plant injury at 250 g/ha (rice): 0%
